Legend:
PKCθ = target: T1, PKCθ (Homo sapiens, UniProt Q04759); test: PKCθ IMAP Assay; type: biochemical; details: IMAP fluorescence polarization screening assay, 35 μM ATP
T1 construct: purchased Invitrogen
Description: The following is an example of an assay that can be used to determine the PKCθ inhibitory activity of a test compound. Reagents are prepared as follows:
Assay Buffer: 50 mM HEPES (pH 7.6), 10 mM MgCl, 0.1 mM EDTA, 5 mM MBP, 0.01% Triton, 1 mM DTT, 0.05 mg/ml phosphatidyl serine, 0.05 mg/ml diacylglycerol.
The final concentration of PKCθ (Invitrogen) is 0.5 nM. The final concentration of substrate (FAM-AKRRRLSSLRA) (Molecular Devices) is 100 nM. The final concentration of ATP in the reaction is 35 μM. The final concentration of DMSO in the reaction is 2.5%.
Enzyme is kept in 5 μl aliquots and stored at −80° C. prior to use. Test compound is allowed to pre-incubate with enzyme for 45 minutes before the reactions is initiated.
The reaction mixture consists of: 5 μl of test compound in 10% DMSO, 5 μl of 400 nM substrate (FAM-AKRRRLSSLRA), 5 μl of […] PKCθ, and 5 μl of 140 μM ATP (ATP is added to the reaction mixture last to initiate the reaction) per well.
The reaction is allowed to proceed for 60 minutes and is terminated by adding 30 μl per well of 90% Progressive A buffer/10% Progressive B buffer and a 1:400 dilution of binding beeds (Molecular Devices).
The reaction is given a binding incubation time of at least 30 minutes prior to reading the fluorescence polarization signal on an Analyst reader (the following detector settings are used: fluorescein excitation-485 nm, fluorescein emission-530 nm, fluorescein dichroic-505 nm).

mTOR = target: T2, mTOR (Homo sapiens, UniProt P42345); test: mTOR HTR-FRET Assay; type: biochemical; details: HTR-FRET screening assay, GST-p70S6 kinase fragment substrate
T2 construct: Dilute TOR fraction 1:14 in “Simple TOR Buffer”
Description: The following is an example of an assay that can be used to determine the mTOR inhibitory activity of a test compound. Reagents are prepared as follows:
“Simple TOR buffer” (used to dilute high glycerol TOR fraction): 10 mM Tris pH 7.4, 100 mM NaCl, 0.1% Tween-20, 1 mM DTT (from 1M stock frozen at −20° C. just prior to use). For convenience a large quantity of “Simple TOR buffer” w/o DTT can be stored at 4° C. It can be brought to room temperature and DTT added just prior to dilution of TOR fraction.
5×KB/5×Mn/5×ATP solution (used to dilute substrate GST-p70S6kin 81 a.a. just prior to use) (40 ml screen quantity shown):
Enzyme solution: Dilute TOR fraction 1:14 in “Simple TOR Buffer”. For current lot that is 640 μg/ml TOR fraction diluted 14× to yield 45.7 μg/ml TOR in buffer (i.e. 7.85 ml TOR pooled fraction+102.1 ml Simple TOR buffer=110 ml 14× diluted TOR fraction). Each Enzyme Lot must be QC'd prior to assay.
Substrate solution: This may be prepared just prior to assay if preferred. Dilute 5.3 mg/ml GST-p70S6kinase fragment stock to 3.5 μg/ml (97 nM) working stock in 5×KB/5×Mn/5×ATP solution (i.e. 26.41 μL (5.3 mg/ml) GST-p70S6+40 ml 5×KB/5×Mn/5×ATP=40 ml 3.5 μg/ml (97 nM)).
Assay Buffer (for dilution of Antibodies used in Antibody Detection Reagent):
Antibody Detection Reagent (this reagent should be made just prior to addition to Assay Plates):
Using PlateTrak program (Screen) or Matrix Pipettor (SAR), 19.5 μL of diluted TOR fraction is added to assay plate in all test, reference or positive control wells. 19.5 μL of “Simple TOR buffer” is added to all negative control wells. If treating multiple plates with the same compounds, can increase volume of enzyme to multiples of 19.5 μL in a tall 384 well polypropylene plate.
Using EP3, 0.5 μl of test, reference or control DMSO is added to each well with mixing. Plates are incubated for 30 minutes at room temperature.
Using PlateTrak program (Screen) or Matrix Pipettor (SAR) 5 μL of 5×KB/5×Mn/5×ATP/5× substrate solution is added to each well of the assay plate to start the reaction. The solutions are mixed well and incubated for 2 hours at room temperature.
Using PlateTrak program (Screen) or Matrix Pipettor (SAR) 5 μL of 60 mM EDTA is added to stop the reaction. The solutions are mixed well and allowed to sit for 15-20 minutes before the next step.
Using PlateTrak program (Screen) or Matrix Pipettor (SAR) 10 μl of Antibody Detection Reagent is added. The solutions are mixes well and incubated for 5 hours to O/N to allow antibodies to form complexes with phosphorylated substrate.
Plates are read on AnalystHT using protocol Multi-Method protocol.

T1 sequence (Q04759 whole entry): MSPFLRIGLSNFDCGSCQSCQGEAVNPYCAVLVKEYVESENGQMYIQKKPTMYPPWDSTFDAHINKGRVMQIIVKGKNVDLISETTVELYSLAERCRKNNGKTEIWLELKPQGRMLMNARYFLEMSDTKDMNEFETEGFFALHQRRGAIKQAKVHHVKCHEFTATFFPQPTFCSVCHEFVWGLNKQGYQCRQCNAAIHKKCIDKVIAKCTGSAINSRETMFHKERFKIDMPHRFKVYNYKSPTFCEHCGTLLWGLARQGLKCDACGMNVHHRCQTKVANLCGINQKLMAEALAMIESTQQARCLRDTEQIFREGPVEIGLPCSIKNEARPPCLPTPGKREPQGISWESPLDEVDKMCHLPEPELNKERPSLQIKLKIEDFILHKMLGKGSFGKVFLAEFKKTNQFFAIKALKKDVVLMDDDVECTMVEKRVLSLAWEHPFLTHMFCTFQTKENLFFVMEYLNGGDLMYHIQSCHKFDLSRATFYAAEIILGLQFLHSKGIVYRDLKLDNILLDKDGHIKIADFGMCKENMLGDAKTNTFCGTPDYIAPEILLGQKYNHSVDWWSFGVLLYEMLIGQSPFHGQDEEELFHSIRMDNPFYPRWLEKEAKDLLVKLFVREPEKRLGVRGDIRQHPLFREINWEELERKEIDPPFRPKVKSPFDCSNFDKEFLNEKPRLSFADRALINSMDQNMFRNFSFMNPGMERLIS

IC50 (PKCθ) [µM] | IC50 (mTOR) [µM] | melting point [°C] | SMILES
0.1 to 5 | 5.1 to 10 |  | CC(c1ccc(Cl)cc1)n1c(=O)[nH]c2ncc(-c3cccc4ncccc34)nc21 (stereo not drawn) [Compound 65, 1-(1-(4-chlorophenyl)ethyl)-6-(quinolin-5-yl)-1H-imidazo[4,5-b]pyrazin-2(3H)-one]
0.1 to 5 | 5.1 to 10 |  | COc1cccc(C(C)n2c(=O)[nH]c3ncc(-c4cccc5ncccc45)nc32)c1 (stereo not drawn) [Compound 55, 1-(1-(3-methoxyphenyl)ethyl)-6-(quinolin-5-yl)-1H-imidazo[4,5-b]pyrazin-2(3H)-one]
 | > 30 |  | CC(c1ccccc1)n1c(=O)oc2ncc(-c3cccc4ncccc34)nc21 (stereo not drawn) [Compound 86, 3-(1-phenylethyl)-5-(quinolin-5-yl)oxazolo[5,4-b]pyrazin-2(3H)-one]
 | 0.1 to 5 | 323 to 324 | CC(C)n1c(=O)[nH]c2ncc(-c3ccc(O)cc3)nc21 [Compound 88, 6-(4-hydroxyphenyl)-1-isopropyl-1H-imidazo[4,5-b]pyrazin-2(3H)-one]
 | 0.1 to 5 | 302 to 303 | O=c1[nH]c2ncc(-c3ccc(O)cc3)nc2n1CC1CCCCC1 [Compound 91, 1-(cyclohexylmethyl)-6-(4-hydroxyphenyl)-1H-imidazo[4,5-b]pyrazin-2(3H)-one]
 | 0.1 to 5 | 271 to 272 | O=c1[nH]c2ncc(-c3ccc(O)cc3)nc2n1CC1CCCOC1 (stereo not drawn) [Compound 90, 6-(4-hydroxyphenyl)-1-((tetrahydro-2H-pyran-3-yl)methyl)-1H-imidazo[4,5-b]pyrazin-2(3H)-one]
 | > 30 |  | CC(c1ccccc1)n1c(=O)[nH]c2ncc(-c3cccc(N(C)C)c3)nc21 (stereo not drawn) [Compound 81, 6-(3-(dimethylamino)phenyl)-1-(1-phenylethyl)-1H-imidazo[4,5-b]pyrazin-2(3H)-one]
5.1 to 10 |  |  | CC(c1cccnc1)n1c(=O)[nH]c2ncc(-c3cccc4ncccc34)nc21 (stereo not drawn) [Compound 76, 1-(1-(pyridin-3-yl)ethyl)-6-(quinolin-5-yl)-1H-imidazo[4,5-b]pyrazin-2(3H)-one]
 | 5.1 to 10 |  | CC(c1ccccc1)n1c(=O)[nH]c2ncc(-c3cccc(N)c3)nc21 (stereo not drawn) [Compound 80, 6-(3-aminophenyl)-1-(1-phenylethyl)-1H-imidazo[4,5-b]pyrazin-2(3H)-one]
> 30 |  |  | COc1ccc(C(C)C)cc1-c1cnc2[nH]c(=O)n(C3CCCC3)c2n1 [Compound 31, 1-cyclopentyl-6-(5-isopropyl-2-methoxyphenyl)-1H-imidazo[4,5-b]pyrazin-2(3H)-one]
10.1 to 20 |  |  | COc1ccc(C(C)C)cc1-c1cnc2[nH]c(=O)n(C3CCCOC3)c2n1 (stereo not drawn) [Compound 46, 6-(5-isopropyl-2-methoxyphenyl)-1-(tetrahydro-2H-pyran-3-yl)-1H-imidazo[4,5-b]pyrazin-2(3H)-one]
> 30 |  |  | COc1ccc(C(C)C)cc1-c1cnc2[nH]c(=O)n(CC3CCCCC3)c2n1 [Compound 35, 1-(cyclohexylmethyl)-6-(5-isopropyl-2-methoxyphenyl)-1H-imidazo[4,5-b]pyrazin-2(3H)-one]

Second part, the compound before the results:

SMILES | IC50 (PKCθ) [µM] | IC50 (mTOR) [µM] | melting point [°C]
CC(c1ccccc1)n1c(=O)[nH]c2ncc(-c3cccc(NS(C)(=O)=O)c3)nc21 (stereo not drawn) [Compound 84, N-(3-(2-oxo-3-(1-phenylethyl)-2,3-dihydro-1H-imidazo[4,5-b]pyrazin-5-yl)phenyl)methanesulfonamide] | 10.1 to 20 | 0.1 to 5 | 
C[C@H](c1ccccc1)n1c(=O)[nH]c2cnc(-c3cccc4ncccc34)cc21 [Compound 24, (R)-1-(1-phenylethyl)-6-(quinolin-5-yl)-1H-imidazo[4,5-c]pyridin-2(3H)-one] | > 30 | > 30 | 
O=c1[nH]c2ncc(-c3cccc4ncccc34)nc2n1C1CCOCC1 [Compound 57, 6-(quinolin-5-yl)-1-(tetrahydro-2H-pyran-4-yl)-1H-imidazo[4,5-b]pyrazin-2(3H)-one] | > 30 | > 30 | 
O=c1[nH]c2ncc(-c3ccc(O)cc3)nc2n1CC1CCOCC1 [Compound 6, 6-(4-hydroxyphenyl)-1-((tetrahydro-2H-pyran-4-yl)methyl)-1H-imidazo[4,5-b]pyrazin-2(3H)-one] |  | 0.1 to 5 | 
O=c1[nH]c2ncc(-c3cccc4ncccc34)nc2n1CC1CCCC1 [Compound 50, 1-(cyclopentylmethyl)-6-(quinolin-5-yl)-1H-imidazo[4,5-b]pyrazin-2(3H)-one] | 10.1 to 20 | 0.1 to 5 | 
O=c1[nH]c2ncc(-c3cccc4ncccc34)nc2n1C1CCCC1 [Compound 53, 1-cyclopentyl-6-(quinolin-5-yl)-1H-imidazo[4,5-b]pyrazin-2(3H)-one] | > 30 | 5.1 to 10 | 
CC(C)Cn1c(=O)[nH]c2ncc(-c3ccc(O)cc3)nc21 [Compound 89, 6-(4-hydroxyphenyl)-1-isobutyl-1H-imidazo[4,5-b]pyrazin-2(3H)-one] |  | 0.1 to 5 | 290 to 291
O=c1[nH]c2ncc(-c3ccc(O)cc3)nc2n1CC1CCCC1 [Compound 87, 1-(cyclopentylmethyl)-6-(4-hydroxyphenyl)-1H-imidazo[4,5-b]pyrazin-2(3H)-one] |  | 0.1 to 5 | 296 to 297
CC(c1ccccc1)n1c(=O)[nH]c2ncc(-c3cccc4ncccc34)cc21 (stereo not drawn) [Compound 63, 1-(1-phenylethyl)-6-(quinolin-5-yl)-1H-imidazo[4,5-b]pyridin-2(3H)-one] | > 30 |  | 
CC(C)c1cccc(-c2cnc3[nH]c(=O)n(C(C)C)c3n2)c1 [Compound 37, 1-isopropyl-6-(3-isopropylphenyl)-1H-imidazo[4,5-b]pyrazin-2(3H)-one] | > 30 |  | 
COc1ccc(C(C)C)cc1-c1cnc2[nH]c(=O)n(CC3CCCC3)c2n1 [Compound 34, 1-(cyclopentylmethyl)-6-(5-isopropyl-2-methoxyphenyl)-1H-imidazo[4,5-b]pyrazin-2(3H)-one] | > 30 |  | 
COc1ccc(C(C)C)cc1-c1cnc2[nH]c(=O)n([C@H]3CCOC3)c2n1 [Compound 29, (S)-6-(5-isopropyl-2-methoxyphenyl)-1-(tetrahydrofuran-3-yl)-1H-imidazo[4,5-b]pyrazin-2(3H)-one] | > 30 |  | 
COc1ccc(C(C)C)cc1-c1cnc2[nH]c(=O)n(C3CCCCC3)c2n1 [Compound 19, 1-cyclohexyl-6-(5-isopropyl-2-methoxyphenyl)-1H-imidazo[4,5-b]pyrazin-2(3H)-one] | > 30 |  | 
CC(C)[C@H](CO)n1c(=O)[nH]c2ncc(-c3ccccc3)nc21 [Compound 9, (R)-1-(1-hydroxy-3-methylbutan-2-yl)-6-phenyl-1H-imidazo[4,5-b]pyrazin-2(3H)-one] | > 30 |  | 
COc1ccc(C(C)C)cc1-c1cnc2[nH]c(=O)n(C3CCOCC3)c2n1 [Compound 23, 6-(5-isopropyl-2-methoxyphenyl)-1-(tetrahydro-2H-pyran-4-yl)-1H-imidazo[4,5-b]pyrazin-2(3H)-one] | > 30 |  | 

Reference: US7981893B2, “Heteroaryl compounds, compositions thereof, and methods of treatment therewith” (Signal Pharmaceuticals, LLC, priority 2006, dated 2011)
